The text below walks through data of patent US4376116A, “Polyamine biosynthesis inhibitors” (Research Corporation, priority 1981, dated 1983).

SMILES strings stand for the structures. Read-outs that look alike come from different tables or passages of the source.

For series [1], the target named is T1, rat prostate spermidine synthase (Rattus norvegicus, UniProt Q99MI5).
T1 construct: purified spermidine synthase obtained from the rat ventral prostate; from tissue; host or cells: rat ventral prostate
T1 sequence (Q99MI5 1-302): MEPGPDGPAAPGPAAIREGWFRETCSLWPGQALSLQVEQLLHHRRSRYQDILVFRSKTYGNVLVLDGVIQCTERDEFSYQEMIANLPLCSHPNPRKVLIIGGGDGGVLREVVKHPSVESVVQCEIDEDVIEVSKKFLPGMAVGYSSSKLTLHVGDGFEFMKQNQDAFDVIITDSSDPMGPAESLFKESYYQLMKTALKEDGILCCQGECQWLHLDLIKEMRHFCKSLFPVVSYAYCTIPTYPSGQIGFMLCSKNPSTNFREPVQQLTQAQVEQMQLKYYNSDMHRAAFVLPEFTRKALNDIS
The experiment in a line: Inhibition of purified spermidine synthase from rat ventral prostate. Type of series: biochemical.

Series [2] deals with T2, rat prostate spermine synthase (Rattus norvegicus, UniProt Q3MIE9).
T2 construct: with respect to rat prostate spermine synthase; from tissue; host or cells: rat prostate
T2 sequence (Q3MIE9 1-366): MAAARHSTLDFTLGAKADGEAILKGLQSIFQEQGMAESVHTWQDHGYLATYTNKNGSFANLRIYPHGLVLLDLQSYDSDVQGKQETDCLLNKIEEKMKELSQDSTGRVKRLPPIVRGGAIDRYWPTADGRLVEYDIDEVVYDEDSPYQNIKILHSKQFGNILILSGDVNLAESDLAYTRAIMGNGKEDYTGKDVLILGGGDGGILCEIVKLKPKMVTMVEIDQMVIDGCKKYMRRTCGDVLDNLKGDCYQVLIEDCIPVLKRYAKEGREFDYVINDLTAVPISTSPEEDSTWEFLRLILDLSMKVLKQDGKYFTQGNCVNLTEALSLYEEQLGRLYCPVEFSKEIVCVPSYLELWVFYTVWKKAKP
Description: Inhibition of rat prostate spermine synthase. Type of series: biochemical. As to conditions: for inhibition at 100 µM: second preparation of spermine synthase. An excerpt:
This enzyme catalyzes the synthesis of spermine in the reaction of spermidine with decarboxylated S-adenosylmethionine, presumably by direct nucleophilic attack as shown by the above transition state wherein R is aminopropyl.

In series [3] the target is T3, methylthioadenosine phosphorylase (Rattus norvegicus, UniProt A0A0G2K583).
T3 construct: In the tests involving MTA phosphorylase, the procedure described by H. Hibasami was employed; from tissue
T3 sequence (A0A0G2K583 1-283): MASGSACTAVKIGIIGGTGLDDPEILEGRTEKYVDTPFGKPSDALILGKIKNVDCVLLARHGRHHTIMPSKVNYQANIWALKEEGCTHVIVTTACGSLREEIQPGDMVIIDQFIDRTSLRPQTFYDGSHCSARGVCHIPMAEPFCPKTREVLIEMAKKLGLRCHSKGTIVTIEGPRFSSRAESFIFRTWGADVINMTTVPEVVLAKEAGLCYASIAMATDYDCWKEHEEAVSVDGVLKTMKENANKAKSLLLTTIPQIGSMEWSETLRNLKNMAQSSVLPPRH
The experiment in a line: Inhibition of methylthioadenosine (MTA) phosphorylase. Type of series: biochemical. As to conditions: for % Inhibition MTA Phosphorylase: methyl thioadenosine 100 μm. An excerpt:
However, they can be readily prepared by coupling 5'-deoxy-5'-chloroadenosine with an appropriate thiol compound. […] (In the tests involving MTA phosphorylase, the procedure described by H. Hibasami was employed at a methyl thioadenosine concentration of 100 μm.)

The nature of series [4]: Solubility limiting the concentration range. As to conditions: concentration range limited. Type of series: physicochemical.
The test system of series [5] is aminopropyl transferases. As to conditions: another study; cited from earlier work.
Series [6] concerns SAM-dependent methylases. As to conditions: cited from earlier work.
[7] abbreviates: at concentrations as high as 250 μM.

The inhibition is the drop in the measured response relative to a control, in per cent. Read a low inhibition as little suppression.

In the case of `NCCCCCC(O)CCN` (stereo not drawn) [1,8-diamine-3-octanol, reference compound], in series [1] (setting [7]), the “inhibition of spermidine synthase (in words)” value is “completely inactive”. In addition, the “inhibition of spermine synthase (in words)” value in series [2] (setting [7]) is “completely inactive”.
Take `CCCCCC(CC)[S+](C)C[C@H]1O[C@@H](n2cnc3c(N)ncnc32)[C@H](O)[C@@H]1O` (stereo partly drawn) [Compound IIb, S-Adenosyl-3-methylthiooctane]: in series [1], the “inhibition of spermidine synthase (in words)” value is “do not at all inhibit”. Moreover, the “% Inhibition Spermidine Synthase” value in series [1] (Concentration 50, dcSAM 21 μm) is on record as 7%; in series [1] (Concentration 100, dcSAM 21 μm), 14%; in series [1] (Concentration 250, dcSAM 21 μm), 44%. Besides, the “inhibition of spermine synthase (in words)” value in series [2] is recorded as “only modest inhibition”. Further, the “% Inhibition Spermine Synthase” value in series [2] (Concentration 50) is 35%; in series [2] (Concentration 100) it was 56%; in series [2] (Concentration 250), 75%. This molecule registered an inhibition at 100 µM in series [2] of 19%. Further, in series [3] (Concentration 250), the “% Inhibition MTA Phosphorylase” value is reported as 21%.
As for `CCCCCC(CC)SC[C@H]1O[C@@H](n2cnc3c(N)ncnc32)[C@H](O)[C@@H]1O` (stereo partly drawn) [Compound Ib, S-adenosyl-3-thiooctane], the “inhibition of spermidine synthase (in words)” value in series [1] is on record as “do not at all inhibit”. Moreover, the “% Inhibition Spermidine Synthase” value in series [1] (Concentration 25, dcSAM 21 μm) is 0%; in series [1] (Concentration 100, dcSAM 21 μm), 0%. Moreover, the “inhibition of spermine synthase (in words)” value in series [2] was “almost no inhibitory activity”. The figures for the “% Inhibition Spermine Synthase” value in series [2] (Concentration 25) and in series [2] (Concentration 100) were 11% and 22%, respectively. Also, the “% Inhibition MTA Phosphorylase” value in series [3] (Concentration 100) is 25%. In addition, the “solubility (in words)” value in series [4] was “poor solubility”.
As to `NCCCCCC(CCN)SC[C@H]1O[C@@H](n2cnc3c(N)ncnc32)[C@H](O)[C@@H]1O` (stereo partly drawn) [Compound Ic, S-Adenosyl-1,8-diamino-3-thiooctane], the “inhibition of spermidine synthase (in words)” value in series [1] was “more potent inhibitor of spermidine synthase than the fully charged methyl sulfonium salt IIc”. The “% Inhibition Spermidine Synthase” value amounted to 97% in series [1] (Concentration 10, dcSAM 21 μm); 97% in series [1] (Concentration 25, dcSAM 21 μm); 99% in series [1] (Concentration 50, dcSAM 21 μm); 99% in series [1] (Concentration 100, dcSAM 21 μm). In series [1] (versus spermine synthase), the “inhibitory specificity against spermidine synthase (in words)” value was “unusual inhibitory specificity”. For the same molecule, in series [2], the “inhibition of spermine synthase (in words)” value is given as “almost no inhibitory activity”. Moreover, the “% Inhibition Spermine Synthase” value in series [2] (Concentration 25) was determined as 10%. Also, in series [3], the “effect on methylthioadenosine phosphorylase (in words)” value was “neither compound Ic nor IIc has any significant effect”. Besides, the “% Inhibition MTA Phosphorylase” value in series [3] (Concentration 10) was 3%; in series [3] (Concentration 25), 8%; in series [3] (Concentration 100) it was 10%.
Turning to `C[S+](C)C[C@H]1O[C@@H](n2cnc3c(N)ncnc32)[C@H](O)[C@@H]1O.[O-][Cl+3]([O-])([O-])[O-]` [IIa, Dimethyl-(5'-adenosyl)sulfonium perchlorate], the “% Inhibition Spermidine Synthase” value in series [1] (Concentration 50, dcSAM 21 μm) came to 0%; in series [1] (Concentration 250, dcSAM 21 μm), 6%. In series [2], the “inhibition of spermine synthase (in words)” value is recorded as “shows inhibition of spermine synthase”. The “% Inhibition Spermine Synthase” value amounted to 68% in series [2] (Concentration 50) and 82% in series [2] (Concentration 250). In addition, the “% Inhibition MTA Phosphorylase” value in series [3] (Concentration 250) turned out to be 30%.
Consider `C[S+](C[C@H]1O[C@@H](n2cnc3c(N)ncnc32)[C@H](O)[C@@H]1O)C(CCN)CCCCCN` (stereo partly drawn) [IIc, S-Adenosyl-1,8-diamino-3-(methylthio)octane], for which the “% Inhibition Spermidine Synthase” value is 32% in series [1] (Concentration 10, dcSAM 21 μm); 84% in series [1] (Concentration 50, dcSAM 21 μm); 92% in series [1] (Concentration 100, dcSAM 21 μm); 96% in series [1] (Concentration 250, dcSAM 21 μm). Further, the “inhibition of spermine synthase (in words)” value in series [2] was “only modest inhibition”. Besides, the “% Inhibition Spermine Synthase” value was 7% in series [2] (Concentration 10), 40% in series [2] (Concentration 50), 59% in series [2] (Concentration 100) and 86% in series [2] (Concentration 250). At 100 µM the inhibition in series [2] was 28%. Besides, the “effect on methylthioadenosine phosphorylase (in words)” value in series [3] is recorded as “neither compound Ic nor IIc has any significant effect”. The “% Inhibition MTA Phosphorylase” value in series [3] (Concentration 250) worked out at 25%.
For the molecule `CSC[C@H]1O[C@@H](n2cnc3c(N)ncnc32)[C@H](O)[C@@H]1O` [Ia, 5'-methylthioadenosine], the “inhibition of spermidine synthase (in words)” value in series [1] was “inhibitor of both spermidine synthase and spermine synthase”. Besides, the “% Inhibition Spermidine Synthase” value in series [1] (Concentration 50, dcSAM 42 μM) came out at 61%; in series [1] (Concentration 100, dcSAM 42 μM), 82%. In addition, the “inhibition of spermine synthase (in words)” value in series [2] was “inhibitor of both spermidine synthase and spermine synthase”. The “% Inhibition Spermine Synthase” value in series [2] (Concentration 50, dcSAM 42 μM) amounted to 80%; in series [2] (Concentration 100, dcSAM 42 μM), 98%. For the same molecule, in series [3], the “MTA Phosphorylase (substrate, in words)” value is “Substrate”. Besides, the “inhibition of aminopropyl transferases (in words)” value in series [5] is on record as “non-specific inhibition”.
In the case of `Nc1ncnc2c1ncn2[C@@H]1O[C@H](CSCC[C@H](N)C(=O)O)[C@@H](O)[C@H]1O` [S-adenosyl-L-homocysteine], the “inhibition of SAM-dependent methylases (in words)” value in series [6] (another study) was “non-specific inhibition”. In addition, in series [6] (many methylases, Cantoni et al), the “Ki versus Km of S-adenosyl-L-methionine (in words)” value was “considerably less than the Km value for the corresponding sulfonium substrate”.
